Entries after “also recorded” stand apart in the source; their conditions may differ. Where two headings read alike, the source gives them in different places.
Tests used:
[1] = system: UTP/ATP content of BALF; test: Measurement of nucleotides (UTP/ATP content) in BALF of RSV-infected mice; type: in vivo, BALB/c mice
Experimental: (§1) Preparation of viral inocula and infection of mice. Preparation of viral stocks and intranasal infection of eight to twelve week-old pathogen-free BALB/c mice of either sex with RSV strain A2 (10^6 PFU in 100 μl) were performed as described in Davis et al., “Nucleotide-mediated inhibition of alveolar fluid clearance in BALB/c mice after respiratory syncytial virus infection,” Am. J. Physiol. Lung Cell Mol. Physiol. 286:L112-L120. (2004). Data for each experimental group was derived from a minimum of 2 independent infections.
Bronchoalveolar lavage. Bronchoalveolar lavage fluid (BALF) was collected as previously described in Davis et al., (2004), using 1 ml of sterile normal saline for cytokine ELISAs, or 0.3 ml of sterile saline for nucleotide assays. Lavagates were centrifuged to remove cells and supernatants stored at −80° C.
Measurement of nucleotides in BALF. Endogenous nucleotidases in BALF were heat denatured (100° C., 3 minutes) and UTP/ATP content measured using the […] and luciferine-luciferase assays, respectively.
(§2) Systemic inhibition of de novo pyrimidine and purine synthesis. Leflunomide (5-methylisoxazole-4-[4-trifluoromethyl]carboxanilide, 35 mg/kg in distilled water containing 1% methylcellulose) was administered once daily by oral gavage in a volume of 300 μl/mouse for 8 days prior to infection, then throughout the infection period. Vehicle controls were gavaged with an equivalent volume of 1% methylcellulose in distilled water. […]

[2] = system: RSV-infected BALB/c mice; test: Alveolar fluid clearance (AFC) in RSV-infected mice at day 2 p.i.; type: in vivo; settings: for effect on RSV-mediated inhibition of AFC at d2 (in words): systemic treatment (leflunomide oral gavage; uridine, 6-MP i.p.)
Experimental: Preparation of viral inocula and infection of mice. […] J. Physiol. Lung Cell Mol. Physiol. […] Data for each experimental group was derived from a minimum of 2 independent infections.
(§3) Systemic inhibition of de novo pyrimidine and purine synthesis. Leflunomide (5-methylisoxazole-4-[4-trifluoromethyl]carboxanilide, 35 mg/kg in distilled water containing 1% methylcellulose) was administered once daily by oral gavage in a volume of 300 μl/mouse for 8 days prior to infection, then throughout the infection period. Vehicle controls were gavaged with an equivalent volume of 1% methylcellulose in distilled water.
To systemically block de novo pyrimidine synthesis, mice were gavaged once daily for 8 days with […] of the dihydro-orotate reductase (DHOR) inhibitor leflunomide ([…] suspended in 1% methylcellulose) or vehicle prior to infection, then at 0 and 24 hours p.i. AFC studies were performed at 48 hours p.i., with no additions to the AFC instillate.
AFC studies were performed on anesthetized, ventilated BALB/c mice with normal body temperature and blood gases, over a 30 minute period after intratracheal instillation of 0.3 ml of isosmolar NaCl containing 5% fatty acid-free BSA. The number of mice analyzed per group is listed in the relevant bar of each graph.

[3] = system: RSV strain A2; test: RSV replication in mouse lungs; type: in vivo, Respiratory syncytial virus; settings: for virus replication in lung tissue at d2: RSV-infected mice, day 2 p.i., systemic treatment
Experimental: as §1, §2

[4] = type: in vivo; settings: for body weight loss after RSV infection: D1 and d2 p.i., versus untreated RSV-infected mice
Experimental: as §1, §2

[5] = system: RSV-infected BALB/c mice; test: Lung water content (wet:dry weight ratio) after RSV infection; type: in vivo; settings: day 2, systemic treatment
Experimental: as §1, §2

[6] = system: RSV-infected BALB/c mice; test: Mean peripheral blood oxygen saturation (SmO2), pulse oximetry; type: in vivo; settings: d2
Experimental: Measurement of mean peripheral blood oxygen saturation. Peripheral blood oxygen saturation was measured in conscious mice, using a PREEMIE OXYTIP® sensor (Datex-Olmeda, hic., Madison, Wis.), connected to a TUFFSAT™ pulse oximeter (Datex-Ohmeda, Inc., Madison, Wis.). Because of the extremely rapid pulse rate of the mouse, oximetry values are mean hemoglobin O2 saturation (SmO2) values from arterial and venous blood.
as §3, with “water. Uridine (1 g/kg in 0.9% NaCl) was administered by i.p. injection every 12 hours in a volume of 100 μl (8). 6-MP (35 mg/kg in 1N NaOH, pH adjusted to 7.9 with 2 M Na2HPO4) was administered by i.p. injection every 24 hours in a volume of 100 μl, for 5 days prior to infection, then throughout the infection period.” for “water.”

[7] = system: RSV-infected BALB/c mice; test: Nasal potential difference (NPD, NPDAMIL); type: in vivo; settings: leflunomide throughout the infection period
Experimental: Measurement of nasal potential difference. The potential difference across the nares of anesthetized mice (with the tail as reference) was measured as previously described Grubb et al., (1994) “Hyperabsorption of Na+ and raised Ca(2+)-mediated Cl-secretion in nasal epithelia of CF mice,” Am. J. Physiol 266:C1478-C1483. A baseline NPD was recorded during perfusion of the nasal epithelium with lactated Ringer's solution. The amiloride-sensitive component of NPD (NPDAMIL) was determined by perfusion with lactated Ringer's solution containing 100 μM amiloride. Current pulses of ±60 nA were applied across the epithelium by a 12V battery in series with a 200 MΩ resistor. Changes in NPD in response to the current pulses (proportional to nasal transepithelial resistance, NRte) were recorded (ΔNPD).
as §2, with “water. Uridine (1 g/kg in 0.9% NaCl) was administered by i.p. injection every 12 hours in a volume of 100 μl (8).” for “water.”

[8] = system: RSV-infected BALB/c mice; test: Heart rate change with ventilation (% ΔHR30), ECG; type: in vivo; settings: RSV-infected mice during AFC procedures, d2
Experimental: Measurement of heart rate changes with ventilation. ECG tracings were used to measure heart rate (number of QRS complexes/cm) at the start (HRSTART) and end (HREND) of the AFC assay. The % change in rate over the 30-minute ventilation period (% ΔHR30) was calculated as (HRSTART−HREND)/HRSTART.
as §3, with “water. Uridine (1 g/kg in 0.9% NaCl) was administered by i.p. injection every 12 hours in a volume of 100 μl (8). 6-MP (35 mg/kg in 1N NaOH, pH adjusted to 7.9 with 2 M Na2HPO4) was administered by i.p. injection every 24 hours in a volume of 100 μl, for 5 days prior to infection, then throughout the infection period.” for “water.”

[9] = d2, leflunomide 35 mg/kg oral gavage once daily, uridine 1 g/kg i.p. every 12 hours

In the case of Cc1oncc1C(=O)Nc1ccc(C(F)(F)F)cc1 [Leflunomide, 5-methylisoxazole-4-[4-trifluoromethyl]carboxanilide], the “effect on BALF nucleotide (UTP, ATP) levels (in words)” value ([1]; d2) is reported as “No increase in BALF nucleotide levels was detected; also recorded: reduced BALF content of both nucleotides to levels below those in untreated, uninfected mice”, the “ATP, mean nucleotide concentration in BALF ± SE” value [1, 9] is reported as 6 ± 1 nmol/L and the “UTP, mean nucleotide concentration in BALF ± SE” value [1, 9] is reported as 5 ± 2 nmol/L. For the same molecule, the “amiloride-sensitive part of AFC” value ([2]; RSV-infected leflunomide-treated mice at d2 (61% in uninfected, −8% in untreated mice at d2)) was 57%, the “AFC30BASAL (mean % basal AFC after 30 minutes ± SE)” value ([2]; RSV-infected mice, day 2 p.i., leflunomide 5 mg/kg oral gavage once daily, uridine 1 mg/kg i.p. q12h) was 33.4 ± 3.00 % and the “effect on RSV-mediated inhibition of AFC at d2 (in words)” value (“effect on RSV-mediated inhibition” for short) [2] was “blocked RSV-induced inhibition of AFC”. The “effect on RSV-mediated inhibition” value ([2]; listed as LEF) was “reverses RSV-mediated inhibition of AFC”, the “effect on RSV-mediated inhibition” value ([2]; listed as leflunomide) was “prevented RSV-induced inhibition of AFC; also recorded: reversed the inhibitory effect of RSV on AFC” and the “virus replication in lung tissue at d2” value [3] was “unaffected”. The “virus replication in lung tissue at d2” value ([3]; listed as LEF) was “no effect on virus replication”, the “virus replication at d8, treatment continued” value ([3]; leflunomide continued throughout the 8 day infection period) was “persisted at high levels” and the “virus replication at d8, treatment discontinued” value ([3]; leflunomide discontinued after d2) was “only minimally increased”. For the same molecule, the “body weight loss after RSV infection” value [4] was “significantly reduced the degree of weight loss”, the “body weight loss after RSV infection” value ([4]; listed as LEF) was “significant reduction in weight loss” and the “body weight loss after RSV infection” value ([4]; listed as leflunomide) was “significantly reduced the degree of weight loss”. For the same molecule, the “body weight during the pretreatment (preinfection) period” value ([4]; before RSV infection, leflunomide 8 days, 6-MP 5 days) was “no significant decline in body weight”, the “toxicity (inferred from body weight)” value ([4]; mouse, in vivo) was “very limited leflunomide toxicity” and the “lung water content (wet:dry weight ratio) (in words)” value [5] was “normalization of lung wet:dry weight ratios”. For the same molecule, the “lung water content (wet:dry weight ratio) (in words)” value ([5]; listed as LEF) was “reverses RSV-induced increased in lung water content”, the “lung water content (wet:dry weight ratio) (in words)” value ([5]; listed as leflunomide) was “restored normal lung wet:dry weight ratios” and the “SmO2 (mean blood O2 saturation)” value [6] was “improved mean blood O2 saturation; also recorded: normalization of SmO2 readings”. The “basal NPD and NPDAMIL” value [7] was “completely prevented RSV-induced declines in basal NPD and NPDAMIL” and the “% ΔHR30” value [8] was “prevented the increase in % ΔHR30”.
